In PubChem BioAssay AID1963838 (Molecular Pharmacology Branch, DTP, NCI, 2024):

Test system: 855422-203-R-J1-PDC complex spheroid viability
Experiment: Anticancer human tumor 855422-203-R-J1-PDC patient-derived bladder carcinoma cell line growth inhibition [POLQ]
Settings: for IC50: curve of first compound; for viability, T/C: stronger effect = lower value; active = viability on the fitted dose curve at most 10% of control; inactive = the rest
Procedure, shortened: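 Growth inhibition in 3D: complex spheroids (tumor PDC, HUVEC, MSC) treated with POLQ inhibitor combinations; where Cmax unknown, highest tested concentration 10 microM, except SN-38 at 1 microM.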

[1] = second compound 0.0316 µM, first compound 0.0316 µM
[2] = second compound 0.0316 µM, first compound 0.1 µM
[3] = second compound 0.0316 µM, first compound 0.316 µM
[4] = second compound 0.0316 µM, first compound 1 µM
[5] = second compound 0.0316 µM, first compound 3.16 µM
[6] = second compound 0.0316 µM, first compound 10 µM
[7] = second compound 0.1 µM, first compound 0.0316 µM
[8] = second compound 0.1 µM, first compound 0.1 µM
[9] = second compound 0.1 µM, first compound 0.316 µM
[10] = second compound 0.1 µM, first compound 1 µM
[11] = second compound 0.1 µM, first compound 3.16 µM
[12] = second compound 0.1 µM, first compound 10 µM
[13] = second compound 0.316 µM, first compound 0.0316 µM
[14] = second compound 0.316 µM, first compound 0.1 µM
[15] = second compound 0.316 µM, first compound 0.316 µM
[16] = second compound 0.316 µM, first compound 1 µM
[17] = second compound 0.316 µM, first compound 3.16 µM
[18] = second compound 0.316 µM, first compound 10 µM
[19] = second compound 1 µM, first compound 0.0316 µM
[20] = second compound 1 µM, first compound 0.1 µM
[21] = second compound 1 µM, first compound 0.316 µM
[22] = second compound 1 µM, first compound 1 µM
[23] = second compound 1 µM, first compound 3.16 µM
[24] = second compound 1 µM, first compound 10 µM
[25] = second compound 3.16 µM, first compound 0.0316 µM
[26] = second compound 3.16 µM, first compound 0.1 µM
[27] = second compound 3.16 µM, first compound 0.316 µM
[28] = second compound 3.16 µM, first compound 1 µM
[29] = second compound 3.16 µM, first compound 3.16 µM
[30] = second compound 3.16 µM, first compound 10 µM
[31] = second compound 10 µM, first compound 0.0316 µM
[32] = second compound 10 µM, first compound 0.1 µM
[33] = second compound 10 µM, first compound 0.316 µM
[34] = second compound 10 µM, first compound 1 µM
[35] = second compound 10 µM, first compound 3.16 µM
[36] = second compound 10 µM, first compound 10 µM
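Also: spheroids exposed to compounds for seven days before readout.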

Nc1ccn(C2OC(CO)C(O)C2(F)F)c(=O)n1 (stereo unspecified) + COC1C(OC(N)=O)C(O)C(Oc2ccc3c(O)c(NC(=O)c4ccc(O)c(CC=C(C)C)c4)c(=O)oc3c2C)OC1(C)C
0.0681 µM: IC50 (second compound 3.16 µM)
0.0437 µM: IC50 (second compound 0.0316 µM)
active: viability, T/C [4] 9.46% | viability, T/C [5] 7.57% | viability, T/C [6] 6.26% | viability, T/C [10] 8.44% | viability, T/C [11] 7.41% | viability, T/C [12] 6.76% | viability, T/C [16] 8.38% | viability, T/C [17] 8.35% | viability, T/C [18] 5.06% | viability, T/C [22] 9.87% | viability, T/C [23] 6.93% | viability, T/C [24] 6.4% | viability, T/C [27] 9.1% | viability, T/C [28] 9.44% | viability, T/C [29] 10.2% | viability, T/C [30] 6.39% | viability, T/C [34] 11.4% | viability, T/C [35] 7.42% | viability, T/C [36] 5.66%
0.0588 µM: IC50 (second compound 1 µM)
inactive: viability, T/C [1] 57.1% | viability, T/C [2] 31.7% | viability, T/C [3] 11.5% | viability, T/C [7] 60.2% | viability, T/C [8] 32.2% | viability, T/C [9] 10.7% | viability, T/C [13] 78.4% | viability, T/C [14] 33.5% | viability, T/C [15] 11.3% | viability, T/C [19] 72.4% | viability, T/C [20] 31% | viability, T/C [21] 12.2% | viability, T/C [25] 75.4% | viability, T/C [26] 37.3% | viability, T/C [31] 72.8% | viability, T/C [32] 37% | viability, T/C [33] 11.5%
0.0482 µM: IC50 (second compound 0.1 µM)
0.0654 µM: IC50 (second compound 0.316 µM)
0.0658 µM: IC50 (second compound 10 µM)

Nc1ccn(C2OC(CO)C(O)C2(F)F)c(=O)n1 (stereo unspecified) + Cc1cccc(N(C)C(=O)C2C(O)CCN2c2nc(C)cc(C(F)(F)F)c2C#N)c1
0.101 µM: IC50 (second compound 0.1 µM)
0.0769 µM: IC50 (second compound 0.316 µM)
active: viability, T/C [4] 12.4% | viability, T/C [5] 8.52% | viability, T/C [6] 7.11% | viability, T/C [10] 9.98% | viability, T/C [11] 8.34% | viability, T/C [12] 6.1% | viability, T/C [16] 10.9% | viability, T/C [17] 8.07% | viability, T/C [18] 5.67% | viability, T/C [22] 11.7% | viability, T/C [23] 8.68% | viability, T/C [24] 6.87% | viability, T/C [28] 10.2% | viability, T/C [29] 10.4% | viability, T/C [30] 6.57% | viability, T/C [35] 8.82% | viability, T/C [36] 8.17%
0.0857 µM: IC50 (second compound 1 µM)
0.0789 µM: IC50 (second compound 0.0316 µM)
inactive: viability, T/C [1] 84.7% | viability, T/C [2] 41% | viability, T/C [3] 12.6% | viability, T/C [7] 86.4% | viability, T/C [8] 50.5% | viability, T/C [9] 13.6% | viability, T/C [13] 81.7% | viability, T/C [14] 40.7% | viability, T/C [15] 11.9% | viability, T/C [19] 83.7% | viability, T/C [20] 44.8% | viability, T/C [21] 12% | viability, T/C [25] 86.5% | viability, T/C [26] 39.4% | viability, T/C [27] 14.8% | viability, T/C [31] 84.5% | viability, T/C [32] 34.4% | viability, T/C [33] 13.3% | viability, T/C [34] 12.7%
0.0698 µM: IC50 (second compound 10 µM)
0.0771 µM: IC50 (second compound 3.16 µM)

CCCS(=O)(=O)Nc1ccc(F)c(C(=O)c2c[nH]c3ncc(-c4ccc(Cl)cc4)cc23)c1F + Nc1ccc(C#CCN(C(=O)Cc2ncc(C(F)(F)F)cc2C(F)(F)F)c2ccc(F)cc2)nn1
6.02 µM: IC50 (second compound 3.16 µM)
inactive: viability, T/C [1] 101% | viability, T/C [2] 116% | viability, T/C [3] 92.3% | viability, T/C [4] 103% | viability, T/C [5] 112% | viability, T/C [7] 99% | viability, T/C [8] 117% | viability, T/C [9] 109% | viability, T/C [10] 107% | viability, T/C [11] 103% | viability, T/C [13] 116% | viability, T/C [14] 113% | viability, T/C [15] 93.1% | viability, T/C [16] 106% | viability, T/C [17] 109% | viability, T/C [19] 106% | viability, T/C [20] 106% | viability, T/C [21] 96.2% | viability, T/C [22] 106% | viability, T/C [23] 109% | viability, T/C [25] 93.5% | viability, T/C [26] 108% | viability, T/C [27] 101% | viability, T/C [28] 101% | viability, T/C [29] 103% | viability, T/C [31] 94% | viability, T/C [32] 102% | viability, T/C [33] 101% | viability, T/C [34] 112% | viability, T/C [35] 99.8%
5.89 µM: IC50 (second compound 10 µM)
6.2 µM: IC50 (second compound 0.316 µM)
active: viability, T/C [6] 4.15% | viability, T/C [12] 4.49% | viability, T/C [18] 9.19% | viability, T/C [24] 5.86% | viability, T/C [30] 9.79% | viability, T/C [36] 7.62%
5.88 µM: IC50 (second compound 0.1 µM)
5.98 µM: IC50 (second compound 1 µM)
5.93 µM: IC50 (second compound 0.0316 µM)
